In patent US8383627B2, “Crystalline polymorph of doxazosin mesylate (form IV) and process for preparation thereof” (CIPLA Limited, priority 2007, dated 2013):
Where a name gives a salt, the structure may show the parent alone.

Experiment: Comparative intrinsic dissolution study
Type: physicochemical
Details: for % Release of Doxazosin Mesylate: 50 mg pellet, 900 ml 0.01N HCl, 37±0.5° C., paddle 50 rpm
Protocol: To measure the intrinsic dissolution of the doxazosin mesylate Form IV, Form M and Form D, samples were measured to compare the influence of the different parameter settings. At appropriate time intervals, an automated sample collector removes aliquots from dissolution medium for analysis. The time interval for sampling can vary, for example, from 2 to 30 minutes, depending on the properties of the drug and dissolution medium used. Suitable dissolution equipment for these operations include LAB INDIA DISSO 2000.
A tableting mixture (50 mg) comprising solely doxazosin mesylate (i.e. with no excipients) was prepared and compressed to a pellet using a manual hand press operating at a compression pressure of 5 tones for 5 minutes.
In-vitro dissolutions studies were performed on the 50 mg pellet in a LAB INDIA DISSO 2000.
The pellet was fixed in a PFTE holder, such that only the pellet surface came into contact with the dissolution medium. The PFTE loaded holder was placed in the dissolution vessel containing 900 ml of 0.01N HCl at 37±0.5° C. Three pellets were measured for each run of the design of the experiments. Stirring was performed with a paddle rotating at 50 rpm. The dissolution was followed up to 1440 min and the concentration of active ingredient, doxazosin mesylate, dissolved in the test medium was determined by removing samples of 10 ml at the specified time.
The concentration of doxazosin mesylate was quantified by HPLC UV method at a maximum wavelength of 245 nm under conditions as specified: • Mobile Phase: 450:450:100:: Buffer:MeOH:Acetonitrile • Buffer: 0.3% v/v Diethylamine. The pH adjusted to 2.5 with orthophosphoric acid • Column: Inersil ODS 15 cm • Flow: 1.0 ml/min
The percentage of doxazosin mesylate released was plotted against time. The intrinsic dissolution rate was derived from the slope of this curve.

COc1cc2nc(N3CCN(C(=O)C4COc5ccccc5O4)CC3)nc(N)c2cc1OC (stereo not drawn) [Form IV, 1-(4-amino-6,7-dimethoxy-2-quinazolinyl)-4-(2,3-dihydro-1,4-benzodioxin-2-yl)carbonyl piperazine monomethanesulfonate]
% Release of Doxazosin Mesylate (5 minutes, monomethanesulfonate): 1.6% | % Release of Doxazosin Mesylate (15 minutes, monomethanesulfonate): 3.6% | % Release of Doxazosin Mesylate (30 minutes, monomethanesulfonate): 6.6% | % Release of Doxazosin Mesylate (45 minutes, monomethanesulfonate): 9.5% | % Release of Doxazosin Mesylate (60 minutes, monomethanesulfonate): 12.0% | % Release of Doxazosin Mesylate (120 minutes, monomethanesulfonate): 21.8% | % Release of Doxazosin Mesylate (180 minutes, monomethanesulfonate): 34.5% | % Release of Doxazosin Mesylate (240 minutes, monomethanesulfonate): 45.7% | % Release of Doxazosin Mesylate (360 minutes, monomethanesulfonate): 66.2% | % Release of Doxazosin Mesylate (480 minutes, monomethanesulfonate): 77.4% | % Release of Doxazosin Mesylate (600 minutes, monomethanesulfonate): 80.0% | % Release of Doxazosin Mesylate (720 minutes, listed as Form -IV, monomethanesulfonate): 81.1% | % Release of Doxazosin Mesylate (720 minutes, monomethanesulfonate): 81.1% | % Release of Doxazosin Mesylate (900 minutes, monomethanesulfonate): 79.7% | % Release of Doxazosin Mesylate (1080 minutes, monomethanesulfonate): 79.2% | % Release of Doxazosin Mesylate (1260 minutes, monomethanesulfonate): 77.6% | higher dissolution rate compared with known Form D (at 30 minutes): 8% | higher dissolution rate compared with known Form D (at 60 minutes): 10.84% | higher dissolution rate compared with known Form D (at 120 minutes): 15.14% | higher dissolution rate compared with known Form D (at 180 minutes): 21.74% | higher dissolution rate compared with known Form D (at 240 minutes): 29.33% | rate of dissolution (compared with known forms, Form M and Form D): superior rate of dissolution

COc1cc2nc(N3CCN(C(=O)C4COc5ccccc5O4)CC3)nc(N)c2cc1OC (stereo not drawn) [Form M, doxazosin mesylate]
% Release of Doxazosin Mesylate (5 minutes, listed as Form -M): 1.5% | % Release of Doxazosin Mesylate (15 minutes, listed as Form -M): 2.8% | % Release of Doxazosin Mesylate (30 minutes, listed as Form -M): 5.0% | % Release of Doxazosin Mesylate (45 minutes, listed as Form -M): 6.5% | % Release of Doxazosin Mesylate (60 minutes, listed as Form -M): 8.1% | % Release of Doxazosin Mesylate (120 minutes, listed as Form -M): 14.1% | % Release of Doxazosin Mesylate (180 minutes, listed as Form -M): 20.8% | % Release of Doxazosin Mesylate (240 minutes, listed as Form -M): 26.5% | % Release of Doxazosin Mesylate (360 minutes, listed as Form -M): 39.5% | % Release of Doxazosin Mesylate (480 minutes, listed as Form -M): 50.2% | % Release of Doxazosin Mesylate (600 minutes, listed as Form -M): 58.8% | % Release of Doxazosin Mesylate (720 minutes, listed as Form -M): 67.0% | % Release of Doxazosin Mesylate (720 minutes, listed as form M): 67.0% | % Release of Doxazosin Mesylate (900 minutes, listed as Form -M): 74.9% | % Release of Doxazosin Mesylate (1080 minutes, listed as Form -M): 78.0% | % Release of Doxazosin Mesylate (1260 minutes, listed as Form -M): 79.5%

COc1cc2nc(N3CCN(C(=O)C4COc5ccccc5O4)CC3)nc(N)c2cc1OC (stereo not drawn) [Form D, doxazosin mesylate]
% Release of Doxazosin Mesylate (5 minutes, listed as Form -D): 1.8% | % Release of Doxazosin Mesylate (15 minutes, listed as Form -D): 3.5% | % Release of Doxazosin Mesylate (30 minutes, listed as Form -D): 6.1% | % Release of Doxazosin Mesylate (45 minutes, listed as Form -D): 8.8% | % Release of Doxazosin Mesylate (60 minutes, listed as Form -D): 10.7% | % Release of Doxazosin Mesylate (120 minutes, listed as Form -D): 18.5% | % Release of Doxazosin Mesylate (180 minutes, listed as Form -D): 27.0% | % Release of Doxazosin Mesylate (240 minutes, listed as Form -D): 32.3% | % Release of Doxazosin Mesylate (360 minutes, listed as Form -D): 51.0% | % Release of Doxazosin Mesylate (480 minutes, listed as Form -D): 65.1% | % Release of Doxazosin Mesylate (600 minutes, listed as Form -D): 72.7% | % Release of Doxazosin Mesylate (720 minutes): 74.5% | % Release of Doxazosin Mesylate (720 minutes, listed as Form -D): 74.5% | % Release of Doxazosin Mesylate (900 minutes, listed as Form -D): 76.0% | % Release of Doxazosin Mesylate (1080 minutes, listed as Form -D): 75.8% | % Release of Doxazosin Mesylate (1260 minutes, listed as Form -D): 75.6%
